{
  "source": "PubChem BioAssay AID1259409",
  "about": "(Chemical Carcinogenesis Research Information System (CCRIS), 2018)",
  "origin": "cited, not measured here",
  "tested_on": "rodent chemically induced tumor inhibition, incidence and multiplicity",
  "experiment": "CCRIS tumor inhibitor studies",
  "conditions": "Route [Inhibitor]: ORAL",
  "data": [
    {"compound": "CSCCC(N)C(=O)O", "note": "(stereo unspecified)", "values": [
      {"measurement": "tumour outcome (control, treated, inhibition, significance)", "setting": "Carcinogen: DIETHYLNITROSAMINE, 55-18-5, Dose [Inhibitor]: 0, 1.5% IN DIET BEGINNING 1 WK POST CARCINOGEN DOSE (STUDY DURATION: 52 WK), Species: MOUSE, Strain/Sex: C3H/MALE, Target Tissue: Type of Lesion: LUNG: ADENOMA OR ADENOCARCINOMA, Dose [Carcinogen]: 150 MG/KG ONCE, Promoter: PHENOBARBITAL, 50-06-6", "value": "7/19 (37%), 0/9 (0%), 100%, not calculated"},
      {"measurement": "tumour outcome (control, treated, inhibition, significance)", "setting": "Carcinogen: ETHIONINE, 13073-35-3, Dose [Inhibitor]: 1.35 MMOL/100 G DIET DAILY FOR 4.5 MO ADMINISTERED SIMULTANEOUSLY WITH CARCINOGEN FOLLOWED BY NORMAL STOCK DIET FOR REMA, Species: RAT, Strain/Sex: WISTAR/MALE, Target Tissue: Type of Lesion: LIVER: CARCINOMA, Dose [Carcinogen]: 0.25% OF DIET DAILY FOR 8 MO, Promoter: NONE USED", "value": "9/9 (100%), 2/8 (25%), 75%, not calculated"},
      {"measurement": "tumour outcome (control, treated, inhibition, significance)", "setting": "Carcinogen: ETHIONINE, 13073-35-3, Dose [Inhibitor]: 2 MMOL/100 G DIET DAILY FOR 8 MO ADMINISTERED SIMULTANEOUSLY WITH CARCINOGEN FOLLOWED BY 2 MO ON NORMAL STOCK DIET (STUD, Species: RAT, Strain/Sex: WISTAR/MALE, FEMALE, Target Tissue: Type of Lesion: LIVER: CARCINOMA, Dose [Carcinogen]: 0.25% OF DIET DAILY FOR 8 MO, Promoter: NONE USED", "value": "9/10 (90%), 5/10 (50%), 44%, not calculated"},
      {"measurement": "tumour outcome (control, treated, inhibition, significance)", "setting": "Carcinogen: ETHIONINE, 13073-35-3, Dose [Inhibitor]: 4 MMOL/100 G DIET DAILY FOR 4.5 MO ADMINISTERED SIMULTANEOUSLY WITH CARCINOGEN FOLLOWED BY NORMAL STOCK DIET FOR REMAIND, Species: RAT, Strain/Sex: WISTAR/MALE, Target Tissue: Type of Lesion: LIVER: CARCINOMA, Dose [Carcinogen]: 0.25% OF DIET DAILY FOR 8 MO, Promoter: NONE USED", "value": "9/9 (100%), 0/10 (0%), 100%, not calculated"},
      {"measurement": "tumour outcome (control, treated, inhibition, significance)", "setting": "Carcinogen: ETHIONINE, 13073-35-3, Dose [Inhibitor]: 4 MMOL/100 G DIET DAILY FOR 8 MO ADMINISTERED SIMULTANEOUSLY WITH CARCINOGEN FOLLOWED BY 4 MO ON BASAL DIET (STUDY DURAT, Species: RAT, Strain/Sex: WISTAR/MALE, Target Tissue: Type of Lesion: LIVER: CARCINOMA, Dose [Carcinogen]: 0.25% OF DIET DAILY FOR 12 MO, Promoter: NONE USED", "value": "8/8 (100%), 0/9 (0%), 100%, not calculated"},
      {"measurement": "tumour outcome (control, treated, inhibition, significance)", "setting": "Carcinogen: ETHIONINE, 13073-35-3, Dose [Inhibitor]: 5.4 MMOL/100 G DIET DAILY FOR 4.5 MO ADMINISTERED SIMULTANEOUSLY WITH CARCINOGEN FOLLOWED BY NORMAL STOCK DIET FOR REMAI, Species: RAT, Strain/Sex: WISTAR/MALE, Target Tissue: Type of Lesion: LIVER: CARCINOMA, Dose [Carcinogen]: 0.25% OF DIET DAILY FOR 8 MO, Promoter: NONE USED", "value": "9/9 (100%), 0/10 (0%), 100%, not calculated"},
      {"measurement": "tumour outcome (control, treated, inhibition, significance)", "setting": "Carcinogen: ETHIONINE, 13073-35-3, Dose [Inhibitor]: 5.4 MMOL/100 G DIET DAILY FOR 8 MO ADMINISTERED SIMULTANEOUSLY WITH CARCINOGEN FOLLOWED BY 4 MO ON BASAL DIET (STUDY DUR, Species: RAT, Strain/Sex: WISTAR/MALE, Target Tissue: Type of Lesion: LIVER: CARCINOMA, Dose [Carcinogen]: 0.25% OF DIET DAILY FOR 12 MO, Promoter: NONE USED", "value": "8/8 (100%), 0/9 (0%), 100%, not calculated"},
      {"measurement": "tumour outcome (control, treated, inhibition, significance)", "setting": "Carcinogen: N-METHYL-N-NITROSOUREA, 684-93-5, Dose [Inhibitor]: 0.5% DIET FOR 1 YR STARTING 5 D PRIOR TO CARCINOGEN TREATMENT (STUDY DURATION: 1 YR), Species: RAT, Strain/Sex: ALBINO/FEMALE, Target Tissue: Type of Lesion: HEMATOPOIETIC SYSTEM: LEUKEMIA, Dose [Carcinogen]: 50 MG/KG 1/WK FOR 2 WK, Promoter: NONE USED", "value": "9/28 (32%), 5/29 (17%), 47%, not significant"},
      {"measurement": "tumour outcome (control, treated, inhibition, significance)", "setting": "Carcinogen: N-METHYL-N-NITROSOUREA, 684-93-5, Dose [Inhibitor]: 0.5% DIET FOR 1 YR STARTING 5 D PRIOR TO CARCINOGEN TREATMENT (STUDY DURATION: 1 YR), Species: RAT, Strain/Sex: ALBINO/FEMALE, Target Tissue: Type of Lesion: KIDNEY: MESENCHYMAL TUMOR, Dose [Carcinogen]: 50 MG/KG 1/WK FOR 2 WK, Promoter: NONE USED", "value": "15/28 (54%), 17/29 (59%), -9%, not significant"},
      {"measurement": "tumour outcome (control, treated, inhibition, significance)", "setting": "Carcinogen: N-METHYL-N-NITROSOUREA, 684-93-5, Dose [Inhibitor]: 0.5% DIET FOR 1 YR STARTING 5 D PRIOR TO CARCINOGEN TREATMENT (STUDY DURATION: 1 YR), Species: RAT, Strain/Sex: ALBINO/FEMALE, Target Tissue: Type of Lesion: MAMMARY GLAND: ADENOCARCINOMA, Dose [Carcinogen]: 50 MG/KG 1/WK FOR 2 WK, Promoter: NONE USED", "value": "9/28 (32%), 4/29 (14%), 56%, p 0.05"},
      {"measurement": "tumour outcome (control, treated, inhibition, significance)", "setting": "Carcinogen: N-METHYL-N-NITROSOUREA, 684-93-5, Dose [Inhibitor]: 0.5% DIET FOR 1 YR STARTING 5 D PRIOR TO CARCINOGEN TREATMENT (STUDY DURATION: 1 YR), Species: RAT, Strain/Sex: ALBINO/FEMALE, Target Tissue: Type of Lesion: MAMMARY GLAND: FIBROADENOMA, Dose [Carcinogen]: 50 MG/KG 1/WK FOR 2 WK, Promoter: NONE USED", "value": "5/28 (18%), 6/29 (21%), -17%, not significant"}
    ]}
  ]
}
